Data taken from PubChem BioAssay (NCI).
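96-well plates; 48 h exposure; 5 concentrations. Endpoints by linear interpolation between flanking doses. Not reached: highest tested concentration assigned. At the GI50, growth is halved. TGI denotes the concentration required for complete inhibition of growth.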 Activity calls are given as the source filed them. Cut-off read from the data, not from the text of the source: active = GI50 below about 0.43 µM; inactive = the rest.

Legend:
Assay in all cases: NCI tumour cell line growth inhibition, 48 h
[1] = system: SNB-19 CNS
[2] = system: SF-295 CNS
[3] = system: A549 NSCLC
[4] = system: OVCAR-5 ovarian
[5] = system: HS 578T breast
[6] = system: DU-145 prostate
[7] = system: UACC-62 melanoma
[8] = system: T-47D breast
[9] = system: HOP-62 NSCLC
[10] = system: A498 renal
[11] = system: RPMI-8226 leukemia
[12] = system: HT29 colon
[13] = system: NCI-H226 lung
[14] = system: COLO 205 colon
[15] = system: OVCAR-3 ovarian
[16] = system: SK-OV-3 ovarian
[17] = system: BT-549 breast
[18] = system: MDA-MB-435
[19] = system: SF-268 CNS
[20] = system: SF-539 CNS
[21] = system: IGROV1 ovarian
[22] = system: NCI/ADR-RES ovarian
[23] = system: ACHN renal
[24] = system: EKVX NSCLC
[25] = system: UO-31 renal
[26] = system: HCC-2998 colon
[27] = system: NCI-H23 lung
[28] = system: MALME-3M melanoma
[29] = system: SK-MEL-2 melanoma
[30] = system: NCI-H460 lung
[31] = system: CCRF-CEM leukemia
[32] = system: HCT-15 colon
[33] = system: U251 CNS
[34] = system: UACC-257 melanoma
[35] = system: HL-60(TB) leukemia
[36] = system: SK-MEL-28 melanoma
[37] = system: RXF 393 renal
[38] = system: SN12C renal
[39] = system: MOLT-4 leukemia
[40] = system: CAKI-1 renal
[41] = system: NCI-H522 lung
[42] = system: OVCAR-4 ovarian
[43] = system: MCF7 breast
[44] = system: M14 melanoma
[45] = system: PC-3 prostate
[46] = system: 786-0 renal
[47] = system: HOP-92 NSCLC
[48] = system: TK-10 renal
[49] = system: SNB-75 CNS
[50] = system: SK-MEL-5 melanoma
[51] = system: SW-620 colon
[52] = system: K-562 leukemia

Question: For `O=[N+]([O-])C(=C(Cl)Cl)/C(Cl)=C(\Cl)Br`, which outcome [1] is on record?
Answer: Its outcome is “inactive”.

Question: And the outcome [2]?
Answer: The outcome was “inactive”.

Question: What about the outcome [3] of the same compound?
Answer: The outcome was “inactive”.

Question: What about the outcome [4] of the same compound?
Answer: The outcome was “inactive”.

Question: And the outcome [5]?
Answer: Its outcome is “inactive”.

Question: What about the outcome [6] of the same compound?
Answer: Its outcome is “inactive”.

Question: What about the outcome [7] of the same compound?
Answer: The outcome was “inactive”.

Question: `CC(C)=CC/C=C(/C)[C@H]1CC[C@]2(C)[C@@H]1CC[C@@H]1[C@@]3(C)CCCNC(C)(C)[C@@H]3CC[C@]12C` was tested. Which GI50 [8] did it give?
Answer: The GI50 was 2.09 µM.

Question: What about the TGI [8] of the same compound?
Answer: Its TGI is 5.03 µM.

Question: And the GI50 [9]?
Answer: The GI50 was 1.9 µM.

Question: And the TGI [9]?
Answer: Its TGI is 3.9 µM.

Question: And the GI50 [10]?
Answer: Its GI50 is 13.8 µM.

Question: What about the TGI [10] of the same compound?
Answer: Its TGI is 29.3 µM.

Question: What about the GI50 [11] of the same compound?
Answer: The GI50 was 2.12 µM.

Question: And the TGI [11]?
Answer: Its TGI is 4.97 µM.

Question: What about the GI50 [12] of the same compound?
Answer: Its GI50 is 1.71 µM.

Question: What about the TGI [12] of the same compound?
Answer: Its TGI is 3.67 µM.

Question: What about the GI50 [1] of the same compound?
Answer: Its GI50 is 3.39 µM.

Question: What about the TGI [1] of the same compound?
Answer: Its TGI is 11.6 µM.

Question: What about the GI50 [13] of the same compound?
Answer: Its GI50 is 3.75 µM.

Question: And the TGI [13]?
Answer: The TGI was 16.8 µM.

Question: What about the GI50 [14] of the same compound?
Answer: Its GI50 is 1.8 µM.

Question: What about the TGI [14] of the same compound?
Answer: Its TGI is 3.53 µM.

Question: What about the GI50 [2] of the same compound?
Answer: Its GI50 is 2 µM.

Question: And the TGI [2]?
Answer: The TGI was 3.83 µM.

Question: What about the GI50 [15] of the same compound?
Answer: Its GI50 is 2.08 µM.

Question: And the TGI [15]?
Answer: The TGI was 4.28 µM.

Question: What about the GI50 [16] of the same compound?
Answer: Its GI50 is 10.6 µM.

Question: And the TGI [16]?
Answer: Its TGI is 24.8 µM.

Question: And the GI50 [17]?
Answer: The GI50 was 12.4 µM.

Question: What about the TGI [17] of the same compound?
Answer: The TGI was 32.5 µM.

Question: What about the GI50 [18] of the same compound?
Answer: Its GI50 is 1.83 µM.

Question: And the TGI [18]?
Answer: The TGI was 3.49 µM.

Question: And the GI50 [19]?
Answer: Its GI50 is 3.82 µM.

Question: What about the TGI [19] of the same compound?
Answer: Its TGI is 16.7 µM.

Question: And the GI50 [20]?
Answer: Its GI50 is 2.85 µM.

Question: And the TGI [20]?
Answer: The TGI was 9.13 µM.

Question: And the GI50 [21]?
Answer: Its GI50 is 1.87 µM.

Question: What about the TGI [21] of the same compound?
Answer: Its TGI is 3.72 µM.

Question: And the GI50 [22]?
Answer: Its GI50 is 2.28 µM.

Question: And the TGI [22]?
Answer: Its TGI is 5.07 µM.

Question: What about the GI50 [23] of the same compound?
Answer: Its GI50 is 3.37 µM.

Question: What about the TGI [23] of the same compound?
Answer: The TGI was 12.4 µM.

Question: And the GI50 [24]?
Answer: Its GI50 is 10.6 µM.

Question: And the TGI [24]?
Answer: Its TGI is 28.4 µM.

Question: What about the GI50 [25] of the same compound?
Answer: Its GI50 is 10.1 µM.

Question: And the TGI [25]?
Answer: The TGI was 23.4 µM.

Question: What about the GI50 [26] of the same compound?
Answer: Its GI50 is 1.97 µM.

Question: And the TGI [26]?
Answer: Its TGI is 3.56 µM.

Question: And the GI50 [27]?
Answer: The GI50 was 3.17 µM.

Question: And the GI50 [3]?
Answer: The GI50 was 2.15 µM.

Question: What about the TGI [3] of the same compound?
Answer: Its TGI is 4.88 µM.

Question: What about the GI50 [4] of the same compound?
Answer: The GI50 was 3.86 µM.

Question: And the TGI [4]?
Answer: Its TGI is 15.1 µM.

Question: And the GI50 [28]?
Answer: Its GI50 is 1.97 µM.

Question: What about the TGI [28] of the same compound?
Answer: The TGI was 4.69 µM.

Question: And the GI50 [29]?
Answer: Its GI50 is 6.06 µM.

Question: And the TGI [29]?
Answer: The TGI was 22.5 µM.

Question: And the GI50 [30]?
Answer: Its GI50 is 2.11 µM.

Question: And the TGI [30]?
Answer: The TGI was 4.4 µM.

Question: What about the GI50 [31] of the same compound?
Answer: Its GI50 is 2.84 µM.

Question: And the TGI [31]?
Answer: Its TGI is 11.3 µM.

Question: And the GI50 [32]?
Answer: Its GI50 is 1.89 µM.

Question: And the TGI [32]?
Answer: Its TGI is 3.56 µM.

Question: And the GI50 [5]?
Answer: The GI50 was 4.96 µM.

Question: What about the TGI [5] of the same compound?
Answer: Its TGI is 22.3 µM.

Question: What about the GI50 [33] of the same compound?
Answer: Its GI50 is 1.75 µM.

Question: And the TGI [33]?
Answer: The TGI was 3.28 µM.

Question: And the GI50 [34]?
Answer: The GI50 was 3.05 µM.

Question: What about the TGI [34] of the same compound?
Answer: The TGI was 11 µM.

Question: What about the GI50 [35] of the same compound?
Answer: Its GI50 is 1.8 µM.

Question: What about the TGI [35] of the same compound?
Answer: Its TGI is 3.73 µM.

Question: What about the GI50 [36] of the same compound?
Answer: Its GI50 is 2.35 µM.

Question: What about the TGI [36] of the same compound?
Answer: Its TGI is 5.67 µM.

Question: And the GI50 [37]?
Answer: The GI50 was 1.72 µM.

Question: And the TGI [37]?
Answer: Its TGI is 3.31 µM.

Question: What about the GI50 [38] of the same compound?
Answer: Its GI50 is 2.3 µM.

Question: What about the TGI [38] of the same compound?
Answer: The TGI was 5.45 µM.

Question: What about the GI50 [6] of the same compound?
Answer: The GI50 was 2.08 µM.

Question: And the TGI [6]?
Answer: The TGI was 4.31 µM.

Question: And the GI50 [39]?
Answer: Its GI50 is 2.15 µM.

Question: What about the TGI [39] of the same compound?
Answer: Its TGI is 5.93 µM.

Question: And the GI50 [40]?
Answer: The GI50 was 1.85 µM.

Question: And the TGI [40]?
Answer: The TGI was 3.93 µM.

Question: And the GI50 [41]?
Answer: Its GI50 is 1.98 µM.

Question: What about the TGI [41] of the same compound?
Answer: Its TGI is 4.48 µM.

Question: And the GI50 [42]?
Answer: The GI50 was 3.33 µM.

Question: And the TGI [42]?
Answer: Its TGI is 11.4 µM.

Question: And the GI50 [43]?
Answer: Its GI50 is 2 µM.

Question: And the TGI [43]?
Answer: The TGI was 3.92 µM.

Question: And the GI50 [44]?
Answer: The GI50 was 3.46 µM.

Question: And the TGI [44]?
Answer: The TGI was 13.8 µM.

Question: What about the GI50 [7] of the same compound?
Answer: The GI50 was 5.5 µM.

Question: What about the TGI [7] of the same compound?
Answer: Its TGI is 20.1 µM.

Question: And the GI50 [45]?
Answer: The GI50 was 1.62 µM.

Question: And the TGI [45]?
Answer: The TGI was 3.59 µM.

Question: What about the GI50 [46] of the same compound?
Answer: Its GI50 is 2.38 µM.

Question: And the TGI [46]?
Answer: The TGI was 6.29 µM.

Question: What about the GI50 [47] of the same compound?
Answer: The GI50 was 1.5 µM.

Question: What about the TGI [47] of the same compound?
Answer: Its TGI is 3.58 µM.

Question: What about the GI50 [48] of the same compound?
Answer: Its GI50 is 10.6 µM.

Question: And the TGI [48]?
Answer: The TGI was 27 µM.

Question: And the GI50 [49]?
Answer: Its GI50 is 2.56 µM.

Question: What about the TGI [49] of the same compound?
Answer: Its TGI is 10.8 µM.

Question: And the GI50 [50]?
Answer: The GI50 was 1.91 µM.

Question: And the TGI [50]?
Answer: The TGI was 4.3 µM.

Question: What about the GI50 [51] of the same compound?
Answer: Its GI50 is 1.82 µM.

Question: What about the TGI [51] of the same compound?
Answer: The TGI was 3.68 µM.

Question: And the GI50 [52]?
Answer: Its GI50 is 1.79 µM.

Question: What about the TGI [52] of the same compound?
Answer: Its TGI is 5.3 µM.
